Test results published in US6486185B1, “3-heteroarylidene-2-indolinone protein kinase inhibitors” (Sugen, Inc., priority 1997, dated 2002).

Molecular target: T1, IGF-1R (Homo sapiens, UniProt P08069)
T1 construct: expressed in transfected cells; host or cells: NIH3T3 (3T3/IGF-1R)
Test: IGF-I receptor ELISA in 3T3/IGF-1R cells
Type: cell-based
Conditions: 50% inhibition of PTK activity over control
Description: The cellular/catalytic assays described herein are performed in an ELISA format. The general procedure is a follows: a compound is introduced to cells expressing the test kinase, either naturally or recombinantly, for some period of time after which, if the test kinase is a receptor, a ligand known to activate the receptor's activity is added. The cells are lysed and the lysate is transferred to the wells of an ELISA plate previously coated with a specific antibody recognizing the substrate of the enzymatic phosphorylation reaction. Non-substrate components of the cell lysate are washed away and the amount of phosphorylation on the substrate is detected with an antibody specifically recognizing phosphotyrosine compared with control cells that were not contacted with a test compound.
The following protocol may be used to measure phosphotyrosine level on IGF-I receptor, which indicates IGF-I receptor tyrosine kinase activity.
The following materials and reagents are used:
a. The cell line used in this assay is 3T3/IGF-1R, a cell line genetically engineered to overexpresses IGF-1 receptor.
b. NIH3T3/IGF-1R is grown in an incubator with 5% CO2 at 37° C. The growth media is DMEM+10% FBS (heat inactivated)+2 mM L-glutamine.
c. Affinity purified anti-IGF-1R antibody 17-69.
e. Blocking Buffer: TBST plus 5% Milk (Carnation Instant Non-Fat Dry Milk).
Stock solution of TBS (10×) is prepared, and Triton X-100 is added to the buffer during dilution.
Stock solution (5×) is prepared and kept at 4° C.
h. EDTA/HCl: 0.5 M pH 7.0 (NaOH) as 100×stock.
i. Na3VO4: 0.5 M as 100×stock and aliquots are kept in −80° C.
k. Insulin-like growth factor-1 from Promega (Cat# G5111).
l. Rabbit polyclonal anti-phosphotyrosine antiserum.
m. Goat anti-rabbit IgG, POD conjugate (detection antibody), Tago (Cat. No. 4520, Lot No. 1802): Tago, Inc., Burlingame, Calif.
n. ABTS (2,2′-azinobis(3-ethylbenzthiazolinesulfonic acid)) solution:
ABTS solution should be kept in dark and 4° C. The solution should be discarded when it turns green.
o. Hydrogen Peroxide: 30% solution is kept in the dark and at 4° C.
All the following steps are conducted at room temperature unless it is specifically indicated. All ELISA plate washings are performed by rinsing the plate with tap water three times, followed by one TBST rinse. Pat plate dry with paper towels.
1. The cells, grown in tissue culture dish (Corning 25020-100) to 80-90% confluence, are harvested with Trypsin-EDTA (0.25%, 0.5 mL/D-100, GIBCO).
2. Resuspend the cells in fresh DMEM+10% FBS+2 mM L-Glutamine, and transfer to 96-well tissue culture plate (Corning, 25806-96) at 20,000 cells/well (100 μL/well). Incubate for 1 day then replace medium to serum-free medium (90/μL) and incubate in 5% CO2 and 37° C. overnight.
B. ELISA Plate Coating and Blocking:
1. Coat the ELISA plate (Corning 25805-96) with Anti-IGF-1R Antibody at 0.5 μg/well in 100 μL PBS at least 2 hours.
2. Remove the coating solution, and replace with 100 μL Blocking Buffer, and shake for 30 minutes. Remove the blocking buffer and wash the plate just before adding lysate.
1. The drugs are tested in serum-free condition.
2. Dilute drug stock (in 100% DMSO) 1:10 with DMEM in 96-well poly-propylene plate, and transfer 10 μL/well of this solution to the cells to achieve final drug dilution 1:100, and final DMSO concentration of 1.0%. Incubate the cells in 5% CO2 at 37° C. for 2 hours.
3. Prepare fresh cell lysis buffer (HNTG*)
4. After drug incubation for two hours, transfer 10 μL/well of 200 nM IGF-1 Ligand in PBS to the cells (Final Conc.=20 nM), and incubate at 5% CO2 at 37° C. for 10 minutes.
5. Remove media and add 100 μL/well HNTG* and shake for 10 minutes. Look at cells under microscope to see if they are adequately lysed.
6. Use a 12-channel pipette to scrape the cells from the plate, and homogenize the lysate.by repeated aspiration and dispensing. Transfer all the lysate to the antibody coated ELISA plate, and shake for 1 hour.
7. […]

T1 sequence (P08069 31-1367, species assumed): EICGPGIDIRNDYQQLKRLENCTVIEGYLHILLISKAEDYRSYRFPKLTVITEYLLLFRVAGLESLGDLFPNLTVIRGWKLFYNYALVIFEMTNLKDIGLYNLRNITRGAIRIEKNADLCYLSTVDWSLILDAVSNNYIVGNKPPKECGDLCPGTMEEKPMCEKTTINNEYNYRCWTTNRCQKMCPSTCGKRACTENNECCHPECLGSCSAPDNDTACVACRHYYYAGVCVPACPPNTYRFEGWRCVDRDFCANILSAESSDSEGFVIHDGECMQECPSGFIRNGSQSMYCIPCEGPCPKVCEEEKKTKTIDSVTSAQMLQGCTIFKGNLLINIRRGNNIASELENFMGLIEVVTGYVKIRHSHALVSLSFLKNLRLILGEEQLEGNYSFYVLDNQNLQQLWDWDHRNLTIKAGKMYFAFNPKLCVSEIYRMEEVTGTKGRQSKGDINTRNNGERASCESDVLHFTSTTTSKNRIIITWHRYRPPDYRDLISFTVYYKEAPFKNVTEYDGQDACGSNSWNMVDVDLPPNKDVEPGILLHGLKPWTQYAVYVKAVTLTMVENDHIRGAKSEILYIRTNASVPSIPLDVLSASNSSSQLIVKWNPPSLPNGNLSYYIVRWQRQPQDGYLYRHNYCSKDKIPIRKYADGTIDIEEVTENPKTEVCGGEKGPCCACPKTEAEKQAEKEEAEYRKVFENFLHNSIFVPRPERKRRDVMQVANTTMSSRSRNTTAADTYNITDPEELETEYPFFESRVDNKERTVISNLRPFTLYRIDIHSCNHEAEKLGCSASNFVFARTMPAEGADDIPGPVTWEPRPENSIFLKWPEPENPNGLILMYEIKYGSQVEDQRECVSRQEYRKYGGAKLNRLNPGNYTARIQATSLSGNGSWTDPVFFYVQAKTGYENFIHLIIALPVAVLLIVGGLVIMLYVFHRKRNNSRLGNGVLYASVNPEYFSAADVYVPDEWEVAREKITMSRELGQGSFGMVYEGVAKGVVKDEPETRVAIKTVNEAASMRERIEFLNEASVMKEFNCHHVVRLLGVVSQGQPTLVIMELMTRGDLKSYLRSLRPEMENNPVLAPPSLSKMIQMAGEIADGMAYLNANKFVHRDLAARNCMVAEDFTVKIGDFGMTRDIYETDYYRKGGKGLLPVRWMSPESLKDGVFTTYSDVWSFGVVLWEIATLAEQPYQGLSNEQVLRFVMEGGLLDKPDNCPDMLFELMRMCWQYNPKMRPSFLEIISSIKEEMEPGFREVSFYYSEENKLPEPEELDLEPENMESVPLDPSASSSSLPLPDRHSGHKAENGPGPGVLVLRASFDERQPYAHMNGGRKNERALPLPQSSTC

| Compound | IC50 |
| --- | --- |
| CCOC(=O)c1c(C)[nH]c(C=C2C(=O)Nc3ccc(Br)cc32)c1C [3-(2,4-dimethyl-3-ethoxycarbonylpyrrol-5-methylidenyl)-5-bromo-2-indolinone] | > 100 µM |
| COC(=O)CCc1c[nH]c(C=C2C(=O)Nc3cc(OC)c(OC)cc32)c1C [3-[4-(2-methoxycarbonylethyl)-3-methylpyrrol-2-methylidenyl]-5,6-dimethoxy-2-indolinone] | > 50 µM |
| CCOC(=O)c1c[nH]c(C=C2C(=O)Nc3ccccc32)c1C [3-(4-ethoxycarbonyl-3-methylpyrrol-2-methylidenyl)-2-indolinone] | > 100 µM |
| CCOC(=O)CCc1c(C(=O)OCC)[nH]c(C=C2C(=O)Nc3ccccc32)c1CC(=O)OCC [3-[2-ethoxycarbonyl-3-(2-ethoxycarbonylethyl)-4-ethoxycarbonylmethyl)pyrrol-5-methylidenyl)-2-indolinone] | > 10 µM |
| CCOC(=O)c1[nH]c(C=C2C(=O)Nc3ccccc32)c(C(C)=O)c1C [3-(4-acetyl-2-ethoxycarbonyl-3-methylpyrrol-5-methylidenyl)-2-indolinone] | > 10 µM |
| CC(=O)c1[nH]c(C=C2C(=O)Nc3ccccc32)c(C)c1C [3-(2-acetyl-3,4-dimethylpyrrol-5-methylidenyl)-2-indolinone] | > 100 µM |
| CCOC(=O)c1c(C)[nH]c(C=C2C(=O)Nc3ccc(NC(=O)c4ccc(C(=O)OC)cc4)cc32)c1C [3-(2,4-dimethyl-3-ethoxycarbonylpyrrol-5-methylidenyl)-5-(4-methoxycarbonylbenzamido)-2-indolinone] | > 10 µM |
| COC(=O)Cc1c(Cl)[nH]c(C=C2C(=O)Nc3ccccc32)c1C(=O)OC [3-(2-chloro-4-methoxycarbonyl-3-methoxycarbonylmethylpyrrol-5-methylidenyl)-2-indolinone] | > 50 µM |
| COC(=O)CCc1c[nH]c(C=C2C(=O)Nc3ccccc32)c1C [3-[4-(2-methoxycarbonylethyl-3-methylpyrrol-2-methylidenyl]-2-indolinone] | > 100 µM |
| Cc1c[nH]c(C=C2C(=O)Nc3ccccc32)c1CCC(=O)O [3-[3-(2-carboxyethyl-4-methylpyrrol-2-methylidenyl]-2-indolinone] | > 100 µM |
